Laboratory results reported in the CheMixHub viscosity set.
Several values for one entry are separate records, joined by “and”; a condition that tells them apart may be missing. Equal entries are not always repeated.

How the values were obtained:
[1] = xn = mol fraction of the nth substance listed; settings: 101 kPa

CCNCCO
viscosity [mPa·s]
Settings | 293.15 K | 298.15 K | 303.15 K | 308.15 K | 313.15 K | 318.15 K | 323.15 K
101 kPa | – | – | 9.639 | 7.83 | 6.419 | 5.358 | 4.517
101.33 kPa | 16.27 | 12.75 | 10.16 | 8.223 | 6.748 | 5.608 | 4.714

CCOS(=O)(=O)[O-].CC[N+](CC)=C(N(C)C)N(C)C
100 kPa
Settings | viscosity
293.15 K | 190.9 mPa·s and 190.9 mPa·s
298.15 K | 139 mPa·s and 139 mPa·s
303.15 K | 104.9 mPa·s and 104.9 mPa·s
308.15 K | 80.44 mPa·s and 80.44 mPa·s
313.15 K | 63.24 mPa·s and 63.24 mPa·s
318.15 K | 50.27 mPa·s and 50.27 mPa·s
323.15 K | 40.55 mPa·s and 40.55 mPa·s

CC[N+]1(C)CCCC1.COP(=O)([O-])OC
100 kPa
Settings | viscosity [mPa·s]
293.15 K | 227.7
298.15 K | 169.4
303.15 K | 123.5
308.15 K | 93.55
313.15 K | 72.82
318.15 K | 56.38
323.15 K | 45.1

COC(=O)c1ccccc1
viscosity
Settings | 293.15 K | 298.15 K | 303.15 K | 308.15 K | 313.15 K | 318.15 K | 323.15 K
100 kPa | – | – | – | 1.517 mPa·s | 1.373 mPa·s | – | –
101 kPa | – | 1.823 mPa·s and 1.825 mPa·s | 1.656 mPa·s and 1.583 mPa·s | 1.501 mPa·s and 1.504 mPa·s | 1.359 mPa·s and 1.371 mPa·s | 1.282 mPa·s and 1.27 mPa·s | 1.222 mPa·s
101.3 kPa | – | 1.918 mPa·s | 1.778 mPa·s | 1.663 mPa·s | 1.402 mPa·s | – | –
101.33 kPa | 1.879 mPa·s and 2.036 mPa·s | 1.836 mPa·s and 1.825 mPa·s and 1.81 mPa·s | 1.523 mPa·s and 1.656 mPa·s and 1.638 mPa·s | 1.521 mPa·s and 1.491 mPa·s | 1.238 mPa·s and 1.398 mPa·s and 1.365 mPa·s | 1.253 mPa·s | 1.016 mPa·s

C[N+](C)(C)C.[OH-]
100 kPa
Settings | viscosity [mPa·s]
298.15 K | 2.77
303.15 K | 2.71
308.15 K | 2.62
313.15 K | 2.56

C[N+]1(CC2CO2)CCCC1=O.[Cl-] (stereo unspecified)
101 kPa
Settings | viscosity
293.15 K | 1.677 mPa·s and 1.623 mPa·s
298.15 K | 1.537 mPa·s and 1.489 mPa·s
303.15 K | 1.415 mPa·s and 1.373 mPa·s
308.15 K | 1.309 mPa·s and 1.27 mPa·s
313.15 K | 1.215 mPa·s and 1.18 mPa·s

O=C(OCc1ccccc1)c1ccccc1
Settings | viscosity
298.15 K, 101 kPa | 8.454 mPa·s and 8.45 mPa·s
313.15 K, 101.33 kPa | 5.04 mPa·s

[Cl-].[Cl-].[Cl-].[Cl-].[Ti+4]
101 kPa
Settings | viscosity [mPa·s]
293.15 K | 0.827
313.15 K | 0.702

c1ccc2c(c1)CCCC2
viscosity
Settings | 293.15 K | 298.15 K | 303.15 K | 308.15 K | 313.15 K | 318.15 K | 323.15 K
100 kPa | 2.195 mPa·s and 2.2 mPa·s | 1.985 mPa·s and 1.99 mPa·s | 1.807 mPa·s and 1.81 mPa·s | 1.654 mPa·s and 1.66 mPa·s | 1.521 mPa·s and 1.52 mPa·s | 1.403 mPa·s and 1.4 mPa·s | 1.301 mPa·s and 1.3 mPa·s
101 kPa | – | 1.985 mPa·s | – | – | – | – | –
101.33 kPa | – | 1.968 mPa·s | 1.778 mPa·s | 1.612 mPa·s | 1.473 mPa·s | – | –
102 kPa | 2.25 mPa·s | – | 1.85 mPa·s | – | – | – | –

CCCCOCCO + OCCO
[1]
Settings | viscosity [mPa·s]
293.15 K, x1 = 0.0517 | 19.96
293.15 K, x1 = 0.099 | 18.69
293.15 K, x1 = 0.2024 | 15.74
293.15 K, x1 = 0.2993 | 13.1
293.15 K, x1 = 0.4009 | 10.68
293.15 K, x1 = 0.4475 | 9.72
293.15 K, x1 = 0.5022 | 8.702
293.15 K, x1 = 0.5447 | 7.996
293.15 K, x1 = 0.6011 | 7.158
293.15 K, x1 = 0.7009 | 5.905
293.15 K, x1 = 0.8048 | 4.826
293.15 K, x1 = 0.8992 | 3.996
293.15 K, x1 = 0.9413 | 3.661
298.15 K, x1 = 0.0515 | 16.18
298.15 K, x1 = 0.1025 | 15.09
298.15 K, x1 = 0.1973 | 12.9
298.15 K, x1 = 0.2977 | 10.71
298.15 K, x1 = 0.3863 | 9.036
298.15 K, x1 = 0.4425 | 8.124
298.15 K, x1 = 0.4743 | 7.652
298.15 K, x1 = 0.5523 | 6.625
298.15 K, x1 = 0.6012 | 6.061
298.15 K, x1 = 0.6986 | 5.082
298.15 K, x1 = 0.783 | 4.349
298.15 K, x1 = 0.8985 | 3.469
298.15 K, x1 = 0.9474 | 3.145
303.15 K, x1 = 0.0582 | 12.73
303.15 K, x1 = 0.098 | 12.07
303.15 K, x1 = 0.2036 | 10.21
303.15 K, x1 = 0.2996 | 8.621
303.15 K, x1 = 0.4 | 7.191
303.15 K, x1 = 0.4503 | 6.57
303.15 K, x1 = 0.5015 | 5.989
303.15 K, x1 = 0.543 | 5.563
303.15 K, x1 = 0.6003 | 5.022
303.15 K, x1 = 0.703 | 4.185
303.15 K, x1 = 0.8036 | 3.495
303.15 K, x1 = 0.8935 | 2.979
303.15 K, x1 = 0.95 | 2.691
